The values that follow come from patent publication US9422285B2, “Substituted pyrazolo[1,5-A]-pyridine-3-carboxamides and use thereof” (Bayer Pharma Aktiengesellschaft, priority 2014, dated 2016).

Structures can show the parent of a compound that is named as a salt.

For this assay, the target named is T1, recombinant guanylate cyclase reporter cell line (Rattus norvegicus, UniProt P19686+P20595).
T1 construct: expressed in transfected cells
T1 sequence (P19686 1-690): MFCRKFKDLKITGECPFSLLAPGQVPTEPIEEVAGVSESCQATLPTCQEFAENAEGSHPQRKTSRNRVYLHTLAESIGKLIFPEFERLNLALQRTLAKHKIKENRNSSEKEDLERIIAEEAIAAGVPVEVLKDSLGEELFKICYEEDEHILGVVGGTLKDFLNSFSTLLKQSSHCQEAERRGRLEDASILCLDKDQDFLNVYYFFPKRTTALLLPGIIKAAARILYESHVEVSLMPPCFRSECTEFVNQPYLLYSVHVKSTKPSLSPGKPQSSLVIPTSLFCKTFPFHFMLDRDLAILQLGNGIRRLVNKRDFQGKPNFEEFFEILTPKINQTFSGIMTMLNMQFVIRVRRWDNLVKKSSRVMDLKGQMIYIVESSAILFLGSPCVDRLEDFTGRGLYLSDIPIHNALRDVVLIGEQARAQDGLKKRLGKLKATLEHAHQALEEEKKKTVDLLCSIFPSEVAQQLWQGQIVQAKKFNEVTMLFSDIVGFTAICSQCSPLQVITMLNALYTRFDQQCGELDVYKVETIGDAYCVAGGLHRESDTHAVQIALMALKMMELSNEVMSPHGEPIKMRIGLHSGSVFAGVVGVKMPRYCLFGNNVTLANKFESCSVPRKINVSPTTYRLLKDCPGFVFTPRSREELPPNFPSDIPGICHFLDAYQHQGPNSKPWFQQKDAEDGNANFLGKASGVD
T1 sequence (P20595 1-619): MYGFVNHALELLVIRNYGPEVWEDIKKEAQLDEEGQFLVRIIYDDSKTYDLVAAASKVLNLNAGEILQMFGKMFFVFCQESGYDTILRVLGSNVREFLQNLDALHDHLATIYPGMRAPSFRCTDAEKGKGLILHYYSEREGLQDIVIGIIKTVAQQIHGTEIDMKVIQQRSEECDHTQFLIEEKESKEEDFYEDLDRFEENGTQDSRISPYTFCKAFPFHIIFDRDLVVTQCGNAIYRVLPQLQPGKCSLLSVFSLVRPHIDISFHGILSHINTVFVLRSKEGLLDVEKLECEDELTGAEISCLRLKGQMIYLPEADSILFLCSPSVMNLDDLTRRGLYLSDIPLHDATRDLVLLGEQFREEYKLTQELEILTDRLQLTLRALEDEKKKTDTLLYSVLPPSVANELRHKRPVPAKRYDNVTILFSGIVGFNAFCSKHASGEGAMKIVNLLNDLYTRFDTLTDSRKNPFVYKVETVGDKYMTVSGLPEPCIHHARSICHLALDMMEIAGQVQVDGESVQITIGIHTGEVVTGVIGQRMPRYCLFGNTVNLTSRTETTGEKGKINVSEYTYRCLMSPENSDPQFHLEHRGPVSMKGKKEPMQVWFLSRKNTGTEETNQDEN
The assay is described as follows: Effect on a recombinant guanylate cyclase reporter cell line (B-2). The class given is cell-based. The following applies: in some cases mean values for individual determinations. The protocol:
B-2. Effect on a Recombinant Guanylate Cyclase Reporter Cell Line
The cellular effect of the inventive compounds is determined using a recombinant guanylate cyclase reporter cell line, as described in F. Wunder et al., Anal. Biochem. 339, 104-112 (2005).
Representative MEC values (MEC=minimum effective concentration) for the inventive compounds are shown in the table below (in some cases as mean values for individual determinations): […]

As to `Cc1cc(OCc2c(F)cccc2F)n2nc(C)c(C(=O)NCC(C)(N)CC(F)F)c2c1` (single isomer, unassigned) [Example 46, ent-N-(2-Amino-4,4-difluoro-2-methylbutyl)-7-[(2,6-difluorobenzyl)oxy]-2,5-dimethylpyrazolo[1,5-a]pyridine-3-carboxamide], the “MEC (minimum effective concentration)” value amounted to 2.0 µM.
With `Cc1cc(OCc2c(F)cccc2F)n2nc(C)c(C(=O)NC3COc4ccccc43)c2c1` (racemic) [Example 108, rac-7-[(2,6-Difluorobenzyl)oxy]-N-(2,3-dihydro-1-benzofur-3-yl)-2,5-dimethylpyrazolo[1,5-a]pyridine-3-carboxamide] the figure was 0.3 µM; with `Cc1cc(OCc2c(F)cccc2F)n2nc(C)c(C(=O)NCC3CCC(C#N)CC3)c2c1` (centres unmarked) [Example 62, N-[(4-Cyanocyclohexyl)methyl]-7-[(2,6-difluorobenzyl)oxy]-2,5-dimethylpyrazolo[1,5-a]pyridine-3-carboxamide], 3.0 µM.
As to `Cc1cc(OCc2c(F)cccc2F)n2nc(C)c(C(=O)NCC(N)c3cccc(C(F)(F)F)c3)c2c1` (racemic) [Example 105, rac-N-{2-Amino-2-[3-(trifluoromethyl)phenyl]ethyl}-7-[(2,6-difluorobenzyl)oxy]-2,5-dimethylpyrazolo[1,5-a]pyridine-3-carboxamide], the “MEC (minimum effective concentration)” value worked out at 3.0 µM.
With `CC(=O)NCCNC(=O)c1c(C)nn2c(OCc3c(F)cccc3F)cc(C)cc12` [Example 96, N-(2-Acetamidoethyl)-7-[(2,6-difluorobenzyl)oxy]-2,5-dimethylpyrazolo[1,5-a]pyridine-3-carboxamide] the figure was 10 µM; with `Cc1cc(OCc2c(F)ccc(F)c2F)n2nc(C)c(C(=O)NC3c4ccccc4CC3O)c2c1` (centres unmarked) [Example 6], 1.0 µM; with `Cc1cc(OCc2c(F)cccc2F)n2nc(C)c(C(=O)NCC(N)c3cnn(C)c3)c2c1` (racemic) [Example 136, rac-N-[2-Amino-2-(1-methyl-1H-pyrazol-4-yl)ethyl]-7-[(2,6-difluorobenzyl)oxy]-2,5-dimethylpyrazolo[1,5-a]pyridine-3-carboxamide], 10 µM.
With `Cc1cc(OCc2c(F)cccc2F)n2nc(C)c(C(=O)NCC(C)(N)CCCF)c2c1` (single isomer, unassigned) [Example 45, ent-N-(2-Amino-5-fluoro-2-methylpentyl)-7-[(2,6-difluorobenzyl)oxy]-2,5-dimethylpyrazolo[1,5-a]pyridine-3-carboxamide] the figure was 0.3 µM; with `Cc1cc(OCc2c(F)ccc(F)c2F)n2nc(C)c(C(=O)NCCN(C)C)c2c1` [Example 12, N-[2-(Dimethylamino)ethyl]-2,5-dimethyl-7-[(2,3,6-trifluorobenzyl)oxy]pyrazolo[1,5-a]pyridine-3-carboxamide], 3.0 µM; with `Cc1cc(OCc2c(F)cccc2F)n2nc(C)c(C(=O)NCC3CCC(=O)N3)c2c1` (racemic) [Example 95, rac-7-[(2,6-Difluorobenzyl)oxy]-2,5-dimethyl-N-[(5-oxopyrrolidin-2-yl)methyl]pyrazolo[1,5-a]pyridine-3-carboxamide], 10 µM.
For `Cc1cc(OCc2c(F)cccc2F)n2nc(C)c(C(=O)N[C@H]3C[C@H]4CN(C)CCN4C3)c2c1` [Example 113, 7-[(2,6-Difluorobenzyl)oxy]-2,5-dimethyl-N-[(7S,8aS)-2-methyloctahydropyrrolo[1,2-a]pyrazin-7-yl]pyrazolo[1,5-a]pyridine-3-carboxamide], the “MEC (minimum effective concentration)” value came out at 3.0 µM.
With `Cc1cc(OCc2c(F)cccc2F)n2nc(C)c(C(=O)NN3CCOCC3)c2c1` [Example 135, 7-[(2,6-Difluorobenzyl)oxy]-2,5-dimethyl-N-(morpholin-4-yl)pyrazolo[1,5-a]pyridine-3-carboxamide] the figure was 3.0 µM.
With `Cc1cc(OCc2c(F)cccc2F)n2nc(C)c(C(=O)NCC(C)(N)CC(F)F)c2c1` (single isomer, unassigned) [Example 47, ent-N-(2-Amino-4,4-difluoro-2-methylbutyl)-7-[(2,6-difluorobenzyl)oxy]-2,5-dimethylpyrazolo[1,5-a]pyridine-3-carboxamide] the figure was 1.0 µM; with `Cc1cc(OCc2c(F)cccc2F)n2nc(C)c(C(=O)NC(CN)c3cccc(OC(F)(F)F)c3)c2c1` (racemic) [Example 132, rac-N-{2-Amino-1-[3-(trifluoromethoxy)phenyl]ethyl}-7-[(2,6-difluorobenzyl)oxy]-2,5-dimethylpyrazolo[1,5-a]pyridine-3-carboxamide], 1.0 µM.
As for `Cc1cc(OCc2c(F)cccc2F)n2nc(C)c(C(=O)NCC(C)(N)CCF)c2c1` (single isomer, unassigned) [Example 50, ent-N-(2-Amino-4-fluoro-2-methylbutyl)-7-[(2,6-difluorobenzyl)oxy]-2,5-dimethylpyrazolo[1,5-a]pyridine-3-carboxamide], the “MEC (minimum effective concentration)” value is 0.3 µM.
With `Cc1cc(OCc2c(F)cccc2F)n2nc(C)c(C(=O)NC3CC(=O)N(C)c4ccccc43)c2c1` (racemic) [Example 77, rac-7-[(2,6-Difluorobenzyl)oxy]-2,5-dimethyl-N-(1-methyl-2-oxo-1,2,3,4-tetrahydroquinolin-4-yl)pyrazolo[1,5-a]pyridine-3-carboxamide trifluoroacetate] the figure was 0.3 µM.
With `Cc1cc(OCc2c(F)cccc2F)n2nc(C)c(C(=O)NCC(C)(C)N)c2c1` [Example 1, N-(2-Amino-2-methylpropyl)-7-[(2,6-difluorobenzyl)oxy]-2,5-dimethylpyrazolo[1,5-a]pyridine-3-carboxamide formate], the “MEC (minimum effective concentration)” value stood at 2 µM.
With `COc1cccc(C(CN)NC(=O)c2c(C)nn3c(OCc4c(F)cccc4F)cc(C)cc23)c1` (racemic) [Example 123, rac-N-[2-Amino-1-(3-methoxyphenyl)ethyl]-7-[(2,6-difluorobenzyl)oxy]-2,5-dimethylpyrazolo[1,5-a]pyridine-3-carboxamide] the figure was 1.0 µM.
Take `CCCC(C)(N)CNC(=O)c1c(C)nn2c(OCc3c(F)ccc(F)c3F)cc(C)cc12` (single isomer, unassigned) [Example 4, ent-N-(2-Amino-2-methylpentyl)-2,5-dimethyl-7-[(2,3,6-trifluorobenzyl)oxy]pyrazolo[1,5-a]pyridine-3-carboxamide]: the “MEC (minimum effective concentration)” value is 0.2 µM.
With `Cc1cc(OCc2c(F)cccc2F)n2nc(C)c(C(=O)NC3CCOc4c(Cl)cccc43)c2c1` (racemic) [Example 147, rac-N-(8-Chloro-3,4-dihydro-2H-chromen-4-yl)-7-[(2,6-difluorobenzyl)oxy]-2,5-dimethylpyrazolo[1,5-a]pyridine-3-carboxamide] the figure was 0.3 µM; with `Cc1cc(OCc2c(F)cccc2F)n2nc(C)c(C(=O)N[C@@H](CC(=O)OC(C)(C)C)CC(C)C)c2c1` [Example 37, tert-Butyl (3R)-3-[({7-[(2,6-difluorobenzyl)oxy]-2,5-dimethylpyrazolo[1,5-a]pyridin-3-yl}carbonyl)amino]-5-methylhexanoate], 10 µM; with `CCC(N)(CC)CNC(=O)c1c(C)nn2c(OCc3c(F)ccc(F)c3F)cc(C)cc12` [Example 8, N-(2-Amino-2-ethylbutyl)-2,5-dimethyl-7-[(2,3,6-trifluorobenzyl)oxy]pyrazolo[1,5-a]pyridine-3-carboxamide], 0.3 µM.
With `CCCC(C)(N)CNC(=O)c1c(C)nn2c(OCc3c(F)cccc3F)cc(CC)cc12` (racemic) [Example 172, rac-N-(2-Amino-2-methylpentyl)-7-[(2,6-difluorobenzyl)oxy]-5-ethyl-2-methylpyrazolo[1,5-a]pyridine-3-carboxamide] the figure was 0.3 µM.
